Key:
“m.1555A>G mutant” cells = test: Cell survival level (MTT assay, Cell Counting Kit-8) of BSO-treated cells; type: cell-based, human; settings: BSO 100 μM, 48 hours
Experimental: (§1) In the following Examples 2, 3, and 5, “m.1555A>G mutant” cells were obtained by skin reproductive to a patient having “m.1555A>G mutation” to obtain dermal fibroblasts, then 10% Primary culture was carried out in DMEM (low glucose) culture solution (manufactured by Nacalai Tesque, Inc) containing FBS (Fetal bovine serum) under the condition of 5% CO2/20% O2, at 37° C. and isolated. In the following Examples 4 and 5, the inner ear culture was carried out in DMEM (high glucose) culture medium containing 10% FBS (Fetal bovine serum) under the condition of 5% CO2/20% O2, at 37° C.
[1] […]
[2] […] Cell survival level was measured by MTT assay using Cell Counting Kit-8 (manufactured by Dojindo Laboratories). That is, 100 μL of Cell Count Reagent SF was added to each well, incubated for 2 hours, and after 3 seconds of stirring with a microplate reader, the absorbance was measured at 450 nm (reference 750 nm). In addition, the level of cytotoxicity was detected by measuring lactate dehydrogenase (LDH) activity released extracellularly using Cytotoxicity LDH Assay Kit-WST (manufactured by Dojindo Laboratories). That is, 100 μL each of Working Solution prepared in each well was added, incubated for 30 minutes, Stop Solution was added in 50 μL each, and after stirring for 3 seconds with a microplate reader, the absorbance was measured at 490 nm (reference 750 nm).

inner hair cells = test: Survival rate of inner hair cells in cultured inner ear with cisplatin; type: cell-based, C57BL/6J mouse; settings: 48 hours
Experimental: as §1
[1] The inner ear of C57BL/6J mouse (hereinafter referred to as “P3 mouse”) on the third day after birth was isolated and cultured in a culture solution for 24 hours.
[2] […] Thereafter, washing with TBS (TBST) solution containing 0.3% Triton X-100 for 5 minutes was repeated twice, followed by taking photograph with a fluorescence microscope (BZ-9000, manufactured by Keyence) and observed using BZ-H1 software (manufactured by Keyence). From the obtained image, the number of cells and the number of damaged cells, each of which has a shape of 200 μm each corresponding to each part of the apex turn, the media turn, and the basilar turn, were measured and 3 parts of the cochlea (apex, media, basilar) were calculated from the survival rate (%) of the outer hair cells and the inner hair cells. […]

SMILES: O=C(CC(C(=O)O)c1c[nH]c2ccccc12)c1ccc(F)cc1F (stereo not shown) [compound #5, 4-(2,4-Difluorophenyl)-2-(1H-indol-3-yl)-4-oxo-butanoic Acid]
- decrease in cell survival level (“m.1555A>G mutant” cells; compound 10 μM): significantly suppressed
- decrease in cell survival level (“m.1555A>G mutant” cells; compound at least 1 μM): inhibited
- survival rate of the inner hair cells (inner hair cells; cisplatin 10 μM, compound 0, 1, 5, 10, 50 μM): almost no change in survival rate
- survival rate of the inner hair cells (inner hair cells; compound 10 μM, cisplatin 0, 5, 7.5, 10, 15, 20 μM, vs DMSO-treated group): hardly any difference
